Experimental data: patent US20250215397A1, “TWO-DIMENSIONAL CULTURE METHOD HAVING CLEAR CHEMICAL COMPOSITION FOR CULTURING THREE-DIMENSIONAL INTESTINAL ORGANOID-DERIVED INTESTINAL STEM CELL AGGREGATE” (KOREA RESEARCH INSTITUTE OF BIOSCIENCE AND BIOTECHNOLOGY, priority 2022, published 2025)
Where a name gives a salt, the structure may show the parent alone.

Key:
Assay type in all cases: cell-based, human
[1] = test system: two-dimensional intestinal stem cell population; assay: Subculture of two-dimensional intestinal stem cells, engraftment / cell number; conditions: for need for long-term subculturing: factor removed from culture medium, subculture, FIG. 12; for subculture efficiency: added during subculture; for subculture efficiency / cell engraftment during subculture: FIG. 13; for cell engraftment during subculture: treatment during subculture
Experimental: (§1) The three-dimensional intestinal organoids were isolated from a Matrigel dome and the remaining three-dimensional intestinal organoids were removed as much as possible by pipetting. The separated organoids were placed in 1 ml of 0.25% trypsin-EDTA (TE, Invitrogen) and incubated at 37° C. a water bath for about 5 minutes. Then, pipetting was performed less than five times so that the organoids were allowed to be isolated into single cells and small clumps, and a basal medium was added so that the total volume thereof was 10 ml. The cells fed into a centrifuge were placed on culture dishes coated with feeder cells or 1% of Matrigel (Corning). Thereafter, 200 ng/ml of R-spondin 1 (R&D Systems), 100 ng/ml of EGF (R&D Systems), and 2.5 μM of Postaglandin E2 (Sigma-aldrich) were used as main components, cultured in an intestinal stem cell culture medium (2 mM of L-glutamine, 1% of Penicillin-Streptomycin, and 15 mM of HEPES buffer in Advanced DMEM F12) comprising, as an auxiliary component, one or more selected from the group consisting of 1×B27 (Invitrogen), 80 ng/ml of Noggin (R&D Systems), 10 nM of [Leu15]-Gastrin I (Sigma-aldrich), 100 ng/ml of human recombinant WNT3A (R&D Systems), 500 nM of A-83-01 (Tocris), 10 μM of SB202190 (Sigma-aldrich), 1 mM of N-acetylcysteine (Sigma-aldrich), and 10 mM of nicotinamide (Sigma-aldrich), and subcultured every 7 to 10 days. During the first 2 days of subculture, 1 μM of Jagged-1 (Anaspec) and/or 2.5 μM of Y-27632 (Tocirs) were added to the intestinal stem cell culture medium.
(§2) The two-dimensional intestinal stem cell population was plated on a culture dish coated with 1% of Matrigel and then cultured for 2 to 7 days. Thereafter, the culture medium was removed, and washing was performed 1 to 2 times with PBS (Sigma-aldrich), and TE (Invitrogen) was added thereto to detach the cells. After centrifugation, a medium was added to isolate the cells into single cells, and then the number of cells was measured using CountessIII cell counter (Thermo Scientific. Inc.).

[2] = test system: two-dimensional intestinal stem cell population; assay: Two-dimensional culture of intestinal stem cell population with removal of medium factors or inhibitor treatment; conditions: for role of essential culture medium factor (stemness, proliferation, death): presence or absence of each factor, FIGS. 7-10; for growth of the two-dimensional intestinal stem cell population: treatment with a WNT inhibitor, morphology, FIG. 8
Experimental: as §1
To measure viability of a two-dimensional intestinal stem cell population cultured in a culture dish coated with 1% of Matrigel, a kit (LIVE/DEAD Viability/Cytotoxicity Kit, Invitrogen) capable of distinguishing and staining surviving cells and dead cells was used. The surviving cells were stained with calcein-AM, and the dead cells were stained with ethidium homodimer-1. The stained cells were observed through a fluorescence microscope (Olympus).
as §2
The intestinal stem cell population was fixed with 4% of paraformaldehyde (PFA) and stained with 0.02% of crystal violet solution (Sigma-aldrich) at room temperature for 10 minutes. Thereafter, images were acquired after washing three times with sterile water. A colony size of the intestinal stem cell population was analyzed using Image J software (National Institute of Health).

[3] = test system: two-dimensional intestinal stem cell population; assay: Differentiation into 2.5-dimensional intestinal epithelial cells by air-liquid interface culture, medium factor screening; conditions: minimal medium composition; FIG. 24
Experimental: The intestinal stem cells grown to a density of 70 to 80% were washed 1-2 times with PBS, and then treated with TE in an incubator at 37° C. for 5 to 7 minutes. The intestinal stem cells isolated into single cells were collected and then diluted using the hIO medium. The cells were gathered by centrifugation, supernatant was removed, the intestinal stem cell culture medium was added thereto and sufficiently mixed, and then the number of cells was measured using Countess III cell counter (Thermo Scientific. Inc.). 2.5-3.5×10^5 cells were placed in an insert of 12-transwell plate (Corning) coated with 1% of Matrigel, and cultured in an incubator. After the cell density reached 100%, the culture medium of an upper layer was completely removed, and the culture medium of a lower layer was replaced with a differentiation medium (2 mM of L-glutamine, 1% of Penicillin-Streptomycin, and 15 mM of a HEPES buffer in Advanced DMEM F12) comprising 200 ng/ml of R-spondin 1 (R&D Systems), 100 ng/ml of EGF (R&D Systems), 2.5 µM of Prostaglandin E2 (Sigma-aldrich), 10 μM of SB202190 (Sigma-aldrich), and 10 mM of nicotinamide (Sigma-aldrich). Thereafter, once every 2 days, a surface of the upper layer was washed with the PBS or hIO medium, and the lower layer was replaced with a new differentiation medium and cultured for 8 to 12 days.

## Cc1cccc(-c2nn(C(=S)Nc3ccccc3)cc2-c2ccnc3ccccc23)n1 [A-83-01]
[1]
  need for long-term subculturing: required to more efficiently perform long-term culturing

## CC(=O)N[C@@H](CS)C(=O)O [N-acetylcysteine]
[1]
  need for long-term subculturing: required to more efficiently perform long-term culturing

## O=C(NOC[C@H](O)CO)c1ccc(F)c(F)c1Nc1ccc(I)cc1F [PD0325901]
[2]; EGF inhibitor treatment, morphology and live/dead assay, FIG. 9
  cell proliferation of the two-dimensional intestinal stem cell population: cell proliferation is inhibited

## CCCCC[C@H](O)/C=C/[C@H]1[C@H](O)CC(=O)[C@@H]1C/C=C\CCCC(=O)O [PGE2, prostaglandin E2]
[3]
  effect on differentiation into intestinal epithelial cells: excellent effect on differentiation into intestinal epithelial cells
[2]
  role of essential culture medium factor (stemness, proliferation, death): modulate the proliferation of the intestinal stem cell population

## Oc1ccc(-c2nc(-c3ccncc3)c(-c3ccc(F)cc3)[nH]2)cc1 [SB202190]
[1]
  need for long-term subculturing: required to more efficiently perform long-term culturing
[3]
  effect on differentiation into intestinal epithelial cells: excellent effect on differentiation into intestinal epithelial cells

## Cc1cc(-c2ccc(CC(=O)Nc3ccc(-c4cccnc4)cc3)cc2)ccn1 [WNT-C59]
[2]
  growth of the two-dimensional intestinal stem cell population: growth is inhibited

## Oc1nc(-c2ccc(C(F)(F)F)cc2)nc2c1CSCC2 [XAV939]
[2]
  growth of the two-dimensional intestinal stem cell population: growth is inhibited

## C[C@@H](N)[C@H]1CC[C@H](C(=O)Nc2ccncc2)CC1 [Y-27632, R-(+)-trans-4-(1-aminoethyl)-N-(4-pyridyl) cyclohexanecarboxamidedihydrochloridemonohydrate]
[1]
  subculture efficiency: subculture efficiency is increased
  cell engraftment during subculture: cell engraftment increases

## NC(=O)c1cccnc1 [nicotinamide]
[1]
  need for long-term subculturing: required to more efficiently perform long-term culturing
[3]
  effect on differentiation into intestinal epithelial cells: excellent effect on differentiation into intestinal epithelial cells

## CCCC(CCC)C(=O)O [valproic acid]
[1]
  subculture efficiency: subculture efficiency is increased
  cell engraftment during subculture: cell engraftment increases

## EGF: receptor tyrosine kinase ligand, epidermal growth factor (NSDSECPLSHDGYCLHDGVCMYIEALDKYACNCVVGYIGERCQYRDLKWWELR; Epidermal growth factor; UniProt P01133 971-1023, looked up)
[3]
  effect on differentiation into intestinal epithelial cells: excellent effect on differentiation into intestinal epithelial cells
[2]
  role of essential culture medium factor (stemness, proliferation, death): prevent death of intestinal stem cell population and modulate proliferation

## Jagged-1: Notch activator
[1]
  subculture efficiency: subculture efficiency is increased
  cell engraftment during subculture: cell engraftment increases
